This data set is described as follows: aqueous solubility in buffer. The format is physicochemical. The settings on record: buffer of pH 6.5 (close to the pH of the intestine). As to the method:
However, like many other HIV protease inhibitors, these compounds are characteristically lipophilic and thus poorly water soluble. For example, the compound of formula I has an aqueous solubility about 1 μg/ml in the buffer of pH 6.5 (close to the pH of the intestine), which is considered as extremely poor aqueous solubility and would be expected to provide very low oral bioavailability in the free acid form.

SMILES strings stand for the structures.

For the compound `CCC[C@@]1(CCc2ccccc2)CC(O)=C([C@H](CC)c2cccc(NS(=O)(=O)c3ccc(C(F)(F)F)cn3)c2)C(=O)O1` [compound of formula I], the solubility (in general, the dissolved amount per volume that the medium holds) was ~1 µg/mL.
